# Source: ChEMBL document CHEMBL4354822, “Ligand-Based Design of Nondimethylphenyl-Diarylpyrimidines with Improved Metabolic Stability, Safety, and Oral Pharmacokinetic Profiles” (J Med Chem, 2019)
# Tests used:
# [1] = target: Human immunodeficiency virus type 1 reverse transcriptase (Human immunodeficiency virus 1) (UniProt Q72547); assay: Ratio of IC50 for nevirapine to IC50 for test compound for recombinant wild type HIV1 reverse transcriptase p66/p51
# [2] = Selectivity index, ratio of CC50 for human MT4 cells to EC50 for antiviral activity against HIV1 3B infected in human MT4 cells incubated for 5 days by MTT assay; assay type: toxicity, cell-based; details: MT4 cells (uninfected for CC50; HIV-1 3B infected for EC50)
# [3] = test system: Human immunodeficiency virus 1; assay: Antiviral activity against HIV1 3B infected in human MT4 cells incubated assessed as reduction in virus-induced cytopathic effect for 5 days by MTT assay; assay type: functional, organism-based; details: Human immunodeficiency virus 1, 3B, MT4, 120 h
# [4] = test system: Human immunodeficiency virus 1; assay: Antiviral activity against HIV1 harboring reverse transcriptase Y188L mutant infected in human MT4 cells assessed as reduction in virus-induced cytopathic effect incubated for 5 days by MTT assay; assay type: functional, organism-based; details: Human immunodeficiency virus 1, MT4, 120 h
# [5] = test system: MT4; assay: Cytotoxicity against human MT4 cells assessed as reduction in cell viability incubated for 5 days by MTT assay; assay type: functional; details: MT4, 120 h
# [6] = target: Human immunodeficiency virus type 1 reverse transcriptase (Human immunodeficiency virus 1, UniProt Q72547); assay: Inhibition of recombinant wild type HIV1 reverse transcriptase p66/p51 incubated for 40 mins by picogreen dye-based spectrofluorometric analysis
# [7] = test system: Human immunodeficiency virus 1; assay: Antiviral activity against HIV1 harboring reverse transcriptase K103N mutant infected in human MT4 cells assessed as reduction in virus-induced cytopathic effect incubated for 5 days by MTT assay; assay type: functional, organism-based; details: Human immunodeficiency virus 1, MT4, 120 h
# [8] = test system: Human immunodeficiency virus 1; assay: Antiviral activity against HIV1 harboring reverse transcriptase L100I mutant infected in human MT4 cells assessed as reduction in virus-induced cytopathic effect incubated for 5 days by MTT assay; assay type: functional, organism-based; details: Human immunodeficiency virus 1, MT4, 120 h
# [9] = test system: Human immunodeficiency virus 1; assay: Antiviral activity against HIV1 harboring reverse transcriptase E138K mutant infected in human MT4 cells assessed as reduction in virus-induced cytopathic effect incubated for 5 days by MTT assay; assay type: functional, organism-based; details: Human immunodeficiency virus 1, MT4, 120 h
# [10] = test system: Human immunodeficiency virus 1; assay: Antiviral activity against HIV1 harboring reverse transcriptase Y181C mutant infected in human MT4 cells assessed as reduction in virus-induced cytopathic effect incubated for 5 days by MTT assay; assay type: functional, organism-based; details: Human immunodeficiency virus 1, MT4, 120 h
# [11] = Aqueous solubility of compound at 2 mg measured for 24 hrs by HPLC analysis; assay type: physicochemical; details: aqueous medium
SMILES,Ratio IC50 [1],selectivity ratio at 120 h [2],EC50 [3],EC50 [4],CC50 [5],IC50 [6],EC50 [7],EC50 [8],EC50 [9],EC50 [10],solubility at 24 h [11]
N#Cc1ccc(Nc2nccc(Nc3c(F)cc(-c4ccc(C#N)cc4)cc3F)n2)cc1,21 to 109,–,–,–,–,–,–,–,–,–,–
N#Cc1ccc(Nc2nccc(Oc3ccc(-c4ccc(C#N)cc4)cc3Cl)n2)cc1,21 to 109,> 179000,1.7 nM,330 nM,> 295000 nM,8.3 nM,< 3.8 nM,11.3 nM,< 3.8 nM,13.7 nM,–
N#Cc1ccc(Nc2nccc(Oc3ccc(-c4ccc(C#N)cc4)cc3F)n2)cc1,21 to 109,> 172000,1.8 nM,> 307000 nM,> 307000 nM,< 3.7 nM,12.3 nM,63.9 nM,6.4 nM,49.1 nM,–
COc1cc(Oc2ccnc(Nc3ccc(C#N)cc3)n2)ccc1-c1ccc(C#N)cc1,–,> 100000,3.1 nM,–,> 298000 nM,–,–,–,–,–,–
Cc1cc(C#N)ccc1-c1ccc(Oc2ccnc(Nc3ccc(C#N)cc3)n2)c(F)c1,–,> 4460,66.5 nM,–,> 297000 nM,–,–,–,–,–,–
Cc1cc(-c2ccc(C#N)cc2)ccc1Oc1ccnc(Nc2ccc(C#N)cc2)n1,21 to 109,> 122000,2.5 nM,14400 nM,> 310000 nM,5.5 nM,8.7 nM,47.1 nM,6.2 nM,18.4 nM,–
N#Cc1ccc(Nc2nccc(Oc3ccc(-c4ccc(C#N)c(Cl)c4)cc3Cl)n2)cc1,–,232,63.5 nM,–,14900 nM,–,–,–,–,–,–
Cc1cc(Nc2ccnc(Nc3ccc(C#N)cc3)n2)ccc1-c1ccc(C#N)cc1,–,894,13.9 nM,–,12400 nM,–,–,–,–,–,–
N#Cc1ccc(Nc2nccc(Oc3ccc(-c4ccc(C#N)cc4)c(F)c3F)n2)cc1,–,> 19200,15.3 nM,–,> 294000 nM,–,–,–,–,–,–
N#Cc1ccc(Nc2nccc(Oc3ccc(-c4ccc(C#N)cc4)c(Cl)c3)n2)cc1,–,3130,9.9 nM,–,31100 nM,–,–,–,–,–,–
N#Cc1ccc(Nc2nccc(Oc3c(F)cc(-c4ccc(C#N)cc4)cc3F)n2)cc1,21 to 109,> 89300,3.3 nM,> 294000 nM,> 294000 nM,13.2 nM,3.5 nM,17.2 nM,5.2 nM,23.5 nM,–
Cc1cc(Oc2ccnc(Nc3ccc(C#N)cc3)n2)ccc1-c1ccc(C#N)cc1,–,41,719 nM,–,29400 nM,–,–,–,–,–,–
N#Cc1ccc(Nc2nccc(Oc3ccc(-c4ccc(C#N)cc4Cl)cc3Cl)n2)cc1,–,> 55,4990 nM,–,> 273000 nM,–,–,–,–,–,–
O=C1Nc2ccc(Cl)cc2[C@@](C#CC2CC2)(C(F)(F)F)O1 [EFAVIRENZ],–,–,7.4 nM,290 nM,> 6340 nM,–,102 nM,44 nM,6.3 nM,7.3 nM,–
Cc1cc(-c2ccc(Oc3ccnc(Nc4ccc(C#N)cc4)n3)c(F)c2)ccc1C#N,–,> 6020,49.9 nM,–,> 297000 nM,–,–,–,–,–,–
CS(=O)(=O)O.N#Cc1ccc(Nc2nccc(Nc3c(F)cc(-c4ccc(C#N)cc4)cc3F)n2)cc1,–,–,–,–,–,–,–,–,–,–,0.88 µg/mL
Cc1cc(-c2ccc(C#N)cc2)ccc1Nc1ccnc(Nc2ccc(C#N)cc2)n1,21 to 109,4480,2.1 nM,240 nM,9200 nM,< 6.2 nM,3 nM,16.7 nM,3 nM,9 nM,–
COc1cc(Nc2ccnc(Nc3ccc(C#N)cc3)n2)ccc1-c1ccc(C#N)cc1,–,304,17.5 nM,–,5260 nM,–,–,–,–,–,–

SMILES,Ratio IC50 [1],selectivity ratio at 120 h [2],EC50 [3],EC50 [4],CC50 [5],IC50 [6],EC50 [7],EC50 [8],EC50 [9],EC50 [10],solubility at 24 h [11]
N#Cc1ccc(Nc2nccc(Nc3ccc(-c4ccc(C#N)cc4)c(F)c3)n2)cc1,–,> 18600,14.5 nM,–,> 271000 nM,–,–,–,–,–,–
COc1cc(-c2ccc(C#N)cc2)ccc1Oc1ccnc(Nc2ccc(C#N)cc2)n1,21 to 109,> 192000,1.6 nM,> 298000 nM,> 298000 nM,9.3 nM,4.5 nM,11.9 nM,2 nM,16.7 nM,–
N#Cc1ccc(Nc2nccc(Oc3ccc(-c4ccc(C#N)cc4)c(C(F)(F)F)c3)n2)cc1,–,> 15000,18.2 nM,–,> 273000 nM,–,–,–,–,–,–
N#Cc1ccc(Nc2nccc(Nc3c(F)cc(-c4ccc(C#N)cc4)cc3F)n2)cc1.O=CO,–,–,–,–,–,–,–,–,–,–,0.35 µg/mL
N#Cc1ccc(Nc2nccc(Oc3ccc(-c4ccc(C#N)cc4)c(F)c3)n2)cc1,–,> 98000,3.2 nM,–,> 307000 nM,–,–,–,–,–,–
Cc1cc(-c2ccc(C#N)c(F)c2)ccc1Oc1ccnc(Nc2ccc(C#N)cc2)n1,–,> 17400,17.1 nM,–,> 297000 nM,–,–,–,–,–,–
N#Cc1ccc(Nc2nccc(Oc3ccc(-c4ccc(C#N)cc4)cc3C(F)(F)F)n2)cc1,–,> 40600,6.8 nM,–,> 273000 nM,–,–,–,–,–,–
COc1cc(-c2ccc(C#N)cc2)ccc1Nc1ccnc(Nc2ccc(C#N)cc2)n1,21 to 109,> 106000,2.9 nM,> 299000 nM,> 299000 nM,6 nM,18.4 nM,122 nM,7.4 nM,158 nM,–
N#Cc1ccc(Nc2nccc(Oc3ccc(-c4ccc(C#N)cc4F)cc3F)n2)cc1,–,> 98000,3.1 nM,–,> 294000 nM,–,–,–,–,–,–
Cc1cc(-c2ccc(C#N)cc2)c(Cl)cc1Oc1ccnc(Nc2ccc(C#N)cc2)n1,21 to 109,> 63300,4.6 nM,> 286000 nM,> 286000 nM,18.8 nM,3.7 nM,8.5 nM,11.9 nM,32 nM,–
Cc1cc(-c2ccc(C#N)cc2F)ccc1Oc1ccnc(Nc2ccc(C#N)cc2)n1,21 to 109,> 27500,10.7 nM,> 294000 nM,> 297000 nM,8.7 nM,4.7 nM,13.2 nM,4.9 nM,14.6 nM,–
N#Cc1ccc(Nc2nccc(Nc3c(F)cc(-c4ccc(C#N)cc4)cc3F)n2)cc1.O=C(O)C(F)(F)F,–,–,–,–,–,–,–,–,–,–,0.35 µg/mL
Cc1ccnc2c1NC(=O)c1cccnc1N2C1CC1 [NEVIRAPINE],–,–,–,–,> 15000 nM,–,> 10100 nM,2100 nM,–,> 15900 nM,–
CC(=O)O.N#Cc1ccc(Nc2nccc(Nc3c(F)cc(-c4ccc(C#N)cc4)cc3F)n2)cc1,–,–,–,–,–,–,–,–,–,–,0.34 µg/mL
N#Cc1ccc(Nc2nccc(Oc3ccc(-c4ccc(C#N)c(F)c4)cc3F)n2)cc1,–,> 2430,120 nM,–,> 294000 nM,–,–,–,–,–,–
N#Cc1ccc(Nc2nccc(Nc3c(F)cc(-c4ccc(C#N)cc4)cc3F)n2)cc1.O=S(=O)(O)O,–,–,–,–,–,–,–,–,–,–,0.36 µg/mL
N#Cc1ccc(Nc2nccc(Nc3ccc(-c4ccc(C#N)cc4)cc3F)n2)cc1,–,> 27300,11.3 nM,–,308000 nM,–,–,–,–,–,–
N#Cc1ccc(Nc2nccc(Nc3c(F)cc(-c4ccc(C#N)cc4)cc3F)n2)cc1.O=S(=O)(O)c1ccccc1,–,–,–,–,–,–,–,–,–,–,0.39 µg/mL
